Reference: paper PMC4671662, “Identification of New Molecular Entities (NMEs) as Potential Leads against Tuberculosis from Open Source Compound Repository” (PLoS ONE, 2015)
Values after ≈ are worked out from the molar mass of the structure shown. Like-named read-outs stand apart in the source and are kept apart here.

What was measured:
[1] = system: M. tuberculosis (H37Rv); assay: M. tuberculosis (H37Rv) inhibition assay, Alamar Blue MIC; assay type: cell-based; settings: Mycobacterium tuberculosis, 168 h, six days + 24 h
[2] = system: Mycobacterium smegmatis (mc^2155); assay: Antimycobacterial assay, turbidometric MIC (OD 600 nm); assay type: cell-based; settings: Mycolicibacterium smegmatis, read-out: M. smeg MIC
[3] = system: Mycobacterium bovis (BCG); assay: microbe, parasite or virus in culture; assay type: cell-based; settings: Mycobacterium tuberculosis variant bovis BCG, 96 h, read-out: BCG MIC
[4] = system: Mycobacterium; assay: Minimum Bactericidal Concentration (MBC) test, CFU approach; assay type: cell-based; settings: for Bacteriocidal/Bacteriostatic: from comparison of MIC and MBC; for MBC compared with MIC: against the test organisms of the study
[5] = system: HepG2 (human hepatoma cells); assay: Sulforhodamine B (SRB) cytotoxicity assay; assay type: cell-based; settings: 48 h
[6] = system: A549 (human lung epithelial cells); assay: Sulforhodamine B (SRB) cytotoxicity assay; assay type: cell-based; settings: 48 h
[7] = system: MCF-7; design: method as in PMID 18507473; settings: cited from earlier work
[8] = system: NCI-H460; design: method as in PMID 18507473; settings: cited from earlier work
[9] = system: SF-264; design: method as in PMID 18507473; settings: cited from earlier work
[10] = system: M. smegmatis (MC^2 155); assay: M. smegmatis primary screening, z-score; assay type: cell-based, Mycobacterium smegmatis; settings: positive controls in primary screening
[11] = system: Campylobacter fetus subsp. jejuni; settings: cited from earlier work
[12] = MC^2155, lowest concentration with 90% growth inhibition, 32 hours

Cc1ccc(C)c(Cn2nnc3c(O)nc(C4CCCN(C(=O)c5ccc(C(C)(C)C)cc5)C4)nc32)c1 (stereo not shown) [Compound H126]
MIC [1]: 12.5 µM | MIC [2, 12]: 30.6 µM (≈ 15.3 µg/mL) | MIC [3]: 23.8 µM (≈ 11.9 µg/mL) | Bacteriocidal/Bacteriostatic [4]: Bacteriostatic | IC50 [5]: 357 µM | IC50 [6]: 369 µM

O=C(CC1(O)c2ccccc2-n2c1nc1ccccc1c2=O)c1ccccc1 (stereo not shown) [Compound H26]
MIC [1]: 0.4 µM | MIC [2, 12]: 53 µM (≈ 19.5 µg/mL) | MIC [3]: 12 µM (≈ 4.44 µg/mL) | MBC compared with MIC [4]: MBC values equivalent to their MIC values | Bacteriocidal/Bacteriostatic [4]: bactericidal activity | IC50 [5]: 417 µM | IC50 [6]: 368 µM | IC50 [7]: > 50 µM | IC50 [8]: > 50 µM | IC50 [9]: > 50 µM

O=C(CSc1nnc(COc2ccc(F)cc2)o1)OC1CCCCC1 [Compound H43]
MIC [1]: 6.28 µM | MIC [2, 12]: 52 µM (≈ 19 µg/mL) | MIC [3]: 13.5 µM (≈ 4.96 µg/mL) | Bacteriocidal/Bacteriostatic [4]: Bacteriostatic | IC50 [5]: 373 µM | IC50 [6]: 335 µM

O=C(Cn1c(=O)n(Cc2ccc(F)cc2)c(=O)c2ccccc21)Nc1cc(F)ccc1F [Compound H137]
MIC [1]: 12.5 µM | MIC [2, 12]: 39.2 µM (≈ 17.2 µg/mL) | MIC [3]: 22.8 µM (≈ 10 µg/mL) | Bacteriocidal/Bacteriostatic [4]: Bacteriostatic | IC50 [5]: 390 µM | IC50 [6]: 385 µM

N#Cc1ccc(C(=O)CC2(O)c3ccccc3-n3c2nc2ccccc2c3=O)cc1 (stereo not shown) [Compound H27]
MIC [1]: 1.56 µM | MIC [2, 12]: 12.8 µM (≈ 5.05 µg/mL) | MIC [3]: 6.58 µM (≈ 2.59 µg/mL) | Bacteriocidal/Bacteriostatic [4]: Bacteriostatic | IC50 [5]: 444 µM | IC50 [6]: 902 µM

Cc1ccc(-c2nc3ccccc3s2)cc1 [Compound H117]
MIC [1]: 12.5 µM | MIC [2, 12]: 26.8 µM (≈ 6.04 µg/mL) | MIC [3]: 14.9 µM (≈ 3.36 µg/mL) | Bacteriocidal/Bacteriostatic [4]: Bacteriostatic | IC50 [5]: 408 µM | IC50 [6]: 475 µM

NNC(=O)c1ccncc1 [Isoniazid, reference compound]
MIC ([2]; MC^2155, 32 h): 11 µM (≈ 1.51 µg/mL) | mean z-score [10]: 4.9

O=C(CSc1nnc2scc(-c3ccccc3)n12)Nc1ccc(N2CCCC2)cc1 [Compound H127]
MIC [1]: 12.5 µM | MIC [2, 12]: 46.6 µM (≈ 20.3 µg/mL) | MIC [3]: 14.2 µM (≈ 6.19 µg/mL) | Bacteriocidal/Bacteriostatic [4]: Bacteriostatic | IC50 [5]: 348 µM | IC50 [6]: 411 µM

Nc1ccc(C(=O)CC2(O)c3ccccc3-n3c2nc2ccccc2c3=O)cc1 (stereo not shown) [Compound H136]
MIC [1]: 1.6 µM | MIC [2, 12]: 42.5 µM (≈ 16.3 µg/mL) | MIC [3]: 11.4 µM (≈ 4.37 µg/mL) | MBC compared with MIC [4]: MBC values equivalent to their MIC values | Bacteriocidal/Bacteriostatic [4]: bactericidal activity | IC50 [5]: 359 µM | IC50 [6]: 321 µM

CCSc1nsc(NC(=O)Nc2ccc(C(F)(F)F)cc2)n1 [Compound H94]
MIC [1]: 6.25 µM | MIC [2, 12]: 25.4 µM (≈ 8.83 µg/mL) | MIC [3]: 12.7 µM (≈ 4.42 µg/mL) | Bacteriocidal/Bacteriostatic [4]: Bacteriostatic | IC50 [5]: 599 µM | IC50 [6]: 443 µM

Nc1ccc(C(=O)CSc2nnc3c(n2)CCCC3)cc1 [Compound H134]
MIC [1]: 12.5 µM | MIC [2, 12]: 22.7 µM (≈ 6.82 µg/mL) | MIC [3]: 10.9 µM (≈ 3.27 µg/mL) | Bacteriocidal/Bacteriostatic [4]: Bacteriostatic | IC50 [5]: 368 µM | IC50 [6]: 424 µM

CO[C@H]1/C=C/O[C@@]2(C)Oc3c(C)c(O)c4c(O)c(c(/C=N/N5CCN(C)CC5)c(O)c4c3C2=O)NC(=O)/C(C)=C\C=C\[C@H](C)[C@H](O)[C@@H](C)[C@@H](O)[C@@H](C)[C@H](OC(C)=O)[C@@H]1C [Rifampicin, reference compound]
MIC ([2]; MC^2155, 32 h): 2.43 µM (≈ 2 µg/mL) | mean z-score [10]: 4.4

COc1cccc2c1C(=O)c1c(O)c3c(c(O)c1C2=O)C[C@@](O)(C(=O)CO)C[C@@H]3O[C@H]1C[C@H](N)[C@H](O)[C@H](C)O1 [Doxorubicin, reference compound]
IC50 [5]: 4.6 µM | IC50 [6]: 5.2 µM

co-trimoxazole
MBC [11]: 125 µg/mL | MIC [11]: 31.2 µg/mL

Cc1nc(C)c(C(=O)N(c2cccc(C)c2C)C(C(=O)NC2CCCCC2)c2ccccc2)s1 (stereo not shown) [Compound H85]
MIC [1]: 12.5 µM | MIC [2, 12]: 25.1 µM (≈ 12 µg/mL) | MIC [3]: 11.5 µM (≈ 5.47 µg/mL) | Bacteriocidal/Bacteriostatic [4]: Bacteriostatic | IC50 [5]: 790 µM | IC50 [6]: 497 µM

COc1cc2c(cc1NC(=O)N1CCCCC1c1cccnc1)oc1ccccc12 (stereo not shown) [Compound H15]
MIC [1]: 12.5 µM | MIC [2, 12]: 42 µM (≈ 16.9 µg/mL) | MIC [3]: 12 µM (≈ 4.83 µg/mL) | Bacteriocidal/Bacteriostatic [4]: Bacteriostatic | IC50 [5]: 510 µM | IC50 [6]: 526 µM
